Source: patent publication US20020037560A1, “Bicyclic terpenes and synthesis thereof” (priority 2000, published 2002)

Target: T1, Tobacco 5-epi-aristolochene synthase (TEAS) (Nicotiana tabacum, UniProt Q40577)
T1 construct: made in house
T1 sequence (Q40577 1-548): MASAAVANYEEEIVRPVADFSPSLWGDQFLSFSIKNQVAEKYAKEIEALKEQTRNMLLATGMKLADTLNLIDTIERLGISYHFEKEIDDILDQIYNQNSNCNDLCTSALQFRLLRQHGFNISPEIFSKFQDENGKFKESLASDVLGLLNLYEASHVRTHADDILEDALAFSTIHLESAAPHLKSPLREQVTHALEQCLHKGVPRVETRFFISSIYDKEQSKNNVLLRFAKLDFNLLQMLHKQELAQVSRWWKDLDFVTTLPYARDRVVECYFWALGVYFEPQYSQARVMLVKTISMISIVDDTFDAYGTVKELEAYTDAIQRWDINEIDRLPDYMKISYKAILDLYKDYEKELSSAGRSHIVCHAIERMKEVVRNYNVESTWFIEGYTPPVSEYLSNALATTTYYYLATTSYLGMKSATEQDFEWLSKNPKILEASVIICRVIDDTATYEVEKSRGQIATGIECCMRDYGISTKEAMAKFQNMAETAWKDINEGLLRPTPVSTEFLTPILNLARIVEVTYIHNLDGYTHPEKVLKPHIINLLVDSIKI
Assay: TEAS activity assay (3H-FPP to 3H-5-epi-aristolochene, hexane partitioning)
Type: biochemical
Procedure: Kinetic Characterization of the Interaction of AGPP with TEAS. The assay for TEAS activity is based upon partitioning of the hydrophobic product (^3H-5-epi-aristolochene) into an organic solvent while the hydrophilic substrate (^3H-FPP) remains in the aqueous phase (i.e. Vögeli & Chappell, 1988; Back et al., 1994; Mathis et al. 1997). The Ki describing AGPP interaction with TEAS was characterized by measuring initial velocities for a matrix of reactions. Reactions (50 μl) containing 200 mM Tris-Cl, pH 7.5, 40 mM MgCl2, 50-250 nM TEAS, and 0.2 μCi ^3H-FPP, carrier-free or in combination with unlabeled FPP to give final substrate concentrations of 0.2-10 μM. Fixed concentrations of AGPP ranged from 0-150 μM. Reactions were initiated by the addition of enzyme and were incubated for 5 min. at 37° C. Reactions were quenched by vortexing against 150 μl hexane. After a brief centrifugation, 100 μl of the hexane phase was treated with approximately 20 mg of silica powder to remove any contaminating FPP or farnesol, the latter of which may be generated by contaminating phosphatase activity. Following vortexing and a brief centrifugation to pellet the silica, 50 μl of the hexane phase was mixed with 4 ml of liquid scintillation cocktail and analyzed for radioactivity (disintegrations per minute). Determination of reaction rate was based on percent conversion to product, the value for which was obtained by comparing the radioactivity in the hexane extract to that in an untreated aliquot of the assay mixture. […] Data were analyzed using Enzyme Kinetics V 1.5 (Trinity Software).
Kinetic Characterization of the Interaction of AGPP with TEAS. As a synthetic analog of FPP, AGPP (2) may potentially bind within the TEAS active site and thereby inhibit the sesquiterpene synthase activity of this enzyme. The nature of the potential interaction between TEAS and AGPP was characterized through a series of TEAS activity assays in which the ability of TEAS to produce ^3H-5-epi-aristolochene from ^3H-FPP was monitored in the presence of unlabeled AGPP. […]

Structure (SMILES)	Km (at 37° C., read-out: KM, TEAS utilization of FPP as a substrate)	mode of inhibition of TEAS-catalyzed cyclization of FPP (Lineweaver-Burk plots, FIG. 1) (intersecting Lineweaver-Burk plots)	Ki (recombinant TEAS, 3H-FPP substrate 0.2-10 μM, AGPP 0-150 μM, 5 min at 37° C., read-out: Ki for the inhibition of TEAS activity)
CC(C)=CCC/C(C)=C/CC/C(C)=C/COP(=O)(O)OP(=O)(O)O [FPP]	5.4 µM		
C/C(=C\COP(=O)(O)OP(=O)(O)O)CC/C=C(\C)CNc1ccccc1 [AGPP, 8-anilino-geranyl pyrophosphate]		competitive inhibitor	5.9 ± 1.8 µM
